Results reported in patent US20260022118A1, “HETEROCYCLIC COMPOUNDS AS NRAS INHIBITORS” (Board of Regents, The University of Texas System, priority 2023, published 2026).

How the values were obtained:
NRAS G12D C118S = NRAS G12D C118S (Homo sapiens (Human), UniProt P01111, C118S/G12D); experiment: NRas G12D Surface Plasmon Resonance (SPR) binding assay; settings: Avi-tagged biotinylated NRAS G12D C118S on streptavidin chip, 25° C., 1:1 kinetic or steady-state fit
Summary of the method: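 Biotinylated Avi-tagged NRAS G12D C118S was captured at about 600 RU on a streptavidin chip alongside a blank reference channel. Compounds were run as 10-point 1:3 dilution series in HBS-P+ pH 7.4 with 5 mM MgCl2 and 3% DMSO, using a 2–4% DMSO solvent correction. A control compound at 10 μM was injected periodically to check protein activity.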

[1] = system: THP-1 cells expressing G12D (NRAS G12D); experiment: Inhibition of NRAS G12D-mediated phosphorylation of ERK (AlphaLISA p-ERK1/2) in THP-1 cells; assay type: cell-based; settings: Homo sapiens, THP-1, 2 h, 2 hours incubation, HBSS with 0% or 10% FBS, p-ERK1/2 (Thr202/Tyr204) AlphaLISA, read-out: pERK THP-1 IC50
Summary of the method: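 THP-1 cells expressing NRAS G12D, seeded in HBSS with 0% or 10% FBS, were exposed to test compound (1% DMSO final) for 2 h. p-ERK1/2 (Thr202/Tyr204) read by AlphaLISA SureFire Ultra. IC50 from curves normalized to no-inhibitor (100%) and 1 μM trametinib (0%) controls.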

Chain of NRAS G12D C118S (P01111 whole entry G12D/C118S): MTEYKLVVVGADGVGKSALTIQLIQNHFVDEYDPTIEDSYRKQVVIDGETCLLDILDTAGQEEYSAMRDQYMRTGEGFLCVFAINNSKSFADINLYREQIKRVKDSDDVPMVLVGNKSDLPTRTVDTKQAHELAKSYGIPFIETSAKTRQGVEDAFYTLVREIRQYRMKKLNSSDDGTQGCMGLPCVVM

Row | SMILES | Kd (NRAS G12D C118S) | IC50 [1]
1 | C#Cc1c(F)ccc2cc(O)cc(-c3nc(OCC(C)C)c4c([C@H]5[C@@H]6CNC[C@@H]65)nn(C5CC5)c4c3F)c12 [Example 100, 4-(3-((1R,5S,6r)-3-azabicyclo[3.1.0]hexan-6-yl)-1-cyclopropyl-7-fluoro-4-isobutoxy-1H-pyrazolo[4,3-c]pyridin-6-yl)-5-ethynyl-6-fluoronaphthalen-2-ol] | 704 nM | 1760 nM
2 | C#Cc1c(F)ccc2cc(O)cc(-c3ncc4c(C5[C@H]6CNC[C@@H]56)cn(CCO)c4c3F)c12 (stereo partly drawn) [Example 103, 4-(3-((1R,5S)-3-azabicyclo[3.1.0]hexan-6-yl)-7-fluoro-1-(2-hydroxyethyl)-1H-pyrrolo[3,2-c]pyridin-6-yl)-5-ethynyl-6-fluoronaphthalen-2-ol] | 488 nM | > 50000 nM
3 | C#Cc1c(F)ccc2cc(O)cc(-c3ncc4c(N5CC6CCC5CN6)nn(C5CC5)c4c3F)c12 (stereo not drawn) [Example 105, 4-(3-(2,5-diazabicyclo[2.2.2]octan-2-yl)-1-cyclopropyl-7-fluoro-1H-pyrazolo[4,3-c]pyridin-6-yl)-5-ethynyl-6-fluoronaphthalen-2-ol] | 18.5 nM | 515 nM

Other lines, results leading:

Row | Kd (NRAS G12D C118S) | IC50 [1] | SMILES
4 | 7600 nM | > 10000 nM | C#Cc1c(F)ccc2cc(O)cc(-c3ncc4c([C@H]5[C@@H]6CNC[C@@H]65)nn(CCCN(C)C)c4c3F)c12 [Example 102, 4-(3-((1R,5S,6r)-3-azabicyclo[3.1.0]hexan-6-yl)-1-(3-(dimethylamino)propyl)-7-fluoro-1H-pyrazolo[4,3-c]pyridin-6-yl)-5-ethynyl-6-fluoronaphthalen-2-ol]
5 | 1170 nM | 12500 nM | C#Cc1c(F)ccc2cc(O)cc(-c3ncc4c([C@H]5[C@@H]6CNC[C@@H]65)nn([C@@H]5C[C@@H]5C)c4c3F)c12 [Example 104, 4-(3-((1R,5S,6r)-3-azabicyclo[3.1.0]hexan-6-yl)-7-fluoro-1-((1R,2S)-2-methylcyclopropyl)-1H-pyrazolo[4,3-c]pyridin-6-yl)-5-ethynyl-6-fluoronaphthalen-2-ol]
6 | 9.39 nM | 163 nM | C#Cc1c(F)ccc2cc(O)cc(-c3ncc4c(N5C[C@@H]6CC[C@H]5CN6)nn(C5CC5)c4c3F)c12 [Example 106, 4-(3-((1S,4S)-2,5-diazabicyclo[2.2.2]octan-2-yl)-1-cyclopropyl-7-fluoro-1H-pyrazolo[4,3-c]pyridin-6-yl)-5-ethynyl-6-fluoronaphthalen-2-ol]
